Molecular target: T1, Human serum albumin (HSA) (Homo sapiens, UniProt P02768)
T1 construct: gene ALB
Assay: intrinsic fluorescence quenching, excitation […] nm, emission […] nm
Format: binding
Conditions: 295 K, PBS pH 7.4, 0.5 uM HSA, no warfarin; double-log; n 0.8430; quenching described as dynamic; Sudlow's site I (IIA)

T1 sequence (P02768 25-609): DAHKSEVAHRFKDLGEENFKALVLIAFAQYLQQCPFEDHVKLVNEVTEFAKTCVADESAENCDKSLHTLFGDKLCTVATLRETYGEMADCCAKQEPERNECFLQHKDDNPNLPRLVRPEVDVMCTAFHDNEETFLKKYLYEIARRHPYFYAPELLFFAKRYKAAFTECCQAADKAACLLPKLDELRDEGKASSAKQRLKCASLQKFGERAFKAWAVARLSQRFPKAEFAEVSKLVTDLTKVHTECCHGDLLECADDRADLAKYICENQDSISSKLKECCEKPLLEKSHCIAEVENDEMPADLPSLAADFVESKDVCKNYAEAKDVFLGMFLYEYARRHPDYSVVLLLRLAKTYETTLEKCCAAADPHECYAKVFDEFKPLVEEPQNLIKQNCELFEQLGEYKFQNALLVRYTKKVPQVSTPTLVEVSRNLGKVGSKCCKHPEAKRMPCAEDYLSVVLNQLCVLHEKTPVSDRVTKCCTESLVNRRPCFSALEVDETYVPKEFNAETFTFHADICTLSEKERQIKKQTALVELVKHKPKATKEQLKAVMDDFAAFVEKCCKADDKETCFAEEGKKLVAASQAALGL

KA: 908000 L/mol
SMILES: CC(C)=CCc1cc(/C=C/C(=O)O)cc(CC=C(C)C)c1O [Artepillin C, 3,5-diprenyl-4-hydroxycinnamic acid]

Reference: publication PMC7560867, “Unique dynamic mode between Artepillin C and human serum albumin implies the characteristics of Brazilian green propolis representative bioactive component” (Scientific Reports, 2020)
